In the supplement of paper PMC10307832:

Key:
Assay in all cases: relative viability (nuclei count vs DMSO), 5 days (fraction); higher = more cells survive
Dovitinib = compound: CN1CCN(c2ccc3nc(-c4c(N)c5c(F)cccc5[nH]c4=O)[nH]c3c2)CC1 [Dovitinib]
Procedure, shortened: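 Nuclei counted with MetaXpress define viability as the ratio of treated to vehicle wells, given as a median across plates. The lung cancer cell lines were in 1536-well plates, pinned with five √10-spaced library-drug doses and imaged at 4× after 5 days and Hoechst staining. Plates passed with control CV below 25% and at least one doubling.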

Dovitinib + Foretinib = compound: CN1CCN(c2ccc3nc(-c4c(N)c5c(F)cccc5[nH]c4=O)[nH]c3c2)CC1 [Dovitinib] + COc1cc2c(Oc3ccc(NC(=O)C4(C(=O)Nc5ccc(F)cc5)CC4)cc3F)ccnc2cc1OCCCN1CCOCC1 [Foretinib] (partner 0.25 µM)
Procedure, shortened: (§1)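 Cells from lung cancer lines were seeded into 1536-well plates and, one day later, dosed by pin tool. Treatments were either a single drug or a fixed dose of an anchor drug with five library-drug doses (not always all listed) in √10 steps. After 5 days, nuclei were stained in a one-step fixation (final 0.05% Triton X-100, 1% formaldehyde, 1 ug/ml Hoechst) and counted on 4× images, and relative viability is the treated-to-vehicle nuclei ratio, as the median of duplicate plates.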

Dovitinib + Pictilisib = compound: CN1CCN(c2ccc3nc(-c4c(N)c5c(F)cccc5[nH]c4=O)[nH]c3c2)CC1 [Dovitinib] + CS(=O)(=O)N1CCN(Cc2cc3nc(-c4cccc5[nH]ncc45)nc(N4CCOCC4)c3s2)CC1 [Pictilisib] (partner 1 µM)
Procedure, shortened: as §1

Dovitinib + Olaparib = compound: CN1CCN(c2ccc3nc(-c4c(N)c5c(F)cccc5[nH]c4=O)[nH]c3c2)CC1 [Dovitinib] + O=C(c1cc(Cc2n[nH]c(=O)c3ccccc23)ccc1F)N1CCN(C(=O)C2CC2)CC1 [Olaparib] (partner 8 µM)
Procedure, shortened: as §1

Dovitinib + Lapatinib = compound: CN1CCN(c2ccc3nc(-c4c(N)c5c(F)cccc5[nH]c4=O)[nH]c3c2)CC1 [Dovitinib] + CS(=O)(=O)CCNCc1ccc(-c2ccc3ncnc(Nc4ccc(OCc5cccc(F)c5)c(Cl)c4)c3c2)o1 [Lapatinib] (partner 2 µM)
Procedure, shortened: as §1

Dovitinib + Linsitinib = compound: CN1CCN(c2ccc3nc(-c4c(N)c5c(F)cccc5[nH]c4=O)[nH]c3c2)CC1 [Dovitinib] + C[C@]1(O)C[C@@H](c2nc(-c3ccc4ccc(-c5ccccc5)nc4c3)c3c(N)nccn32)C1 [Linsitinib] (partner 1 µM)
Procedure, shortened: as §1

Dovitinib + Crizotinib = compound: CN1CCN(c2ccc3nc(-c4c(N)c5c(F)cccc5[nH]c4=O)[nH]c3c2)CC1 [Dovitinib] + C[C@@H](Oc1cc(-c2cnn(C3CCNCC3)c2)cnc1N)c1c(Cl)ccc(F)c1Cl [Crizotinib] (partner 1 µM)
Procedure, shortened: as §1

Dovitinib + Bortezomib = compound: CN1CCN(c2ccc3nc(-c4c(N)c5c(F)cccc5[nH]c4=O)[nH]c3c2)CC1 [Dovitinib] + CC(C)C[C@H](NC(=O)[C@H](Cc1ccccc1)NC(=O)c1cnccn1)B(O)O [Bortezomib] (partner 0.002 µM)
Procedure, shortened: as §1

Dovitinib + Alpelisib = compound: CN1CCN(c2ccc3nc(-c4c(N)c5c(F)cccc5[nH]c4=O)[nH]c3c2)CC1 [Dovitinib] + Cc1nc(NC(=O)N2CCC[C@H]2C(N)=O)sc1-c1ccnc(C(C)(C)C(F)(F)F)c1 [Alpelisib] (partner 2 µM)
Procedure, shortened: as §1

Dovitinib + Navitoclax = compound: CN1CCN(c2ccc3nc(-c4c(N)c5c(F)cccc5[nH]c4=O)[nH]c3c2)CC1 [Dovitinib] + CC1(C)CCC(c2ccc(Cl)cc2)=C(CN2CCN(c3ccc(C(=O)NS(=O)(=O)c4ccc(N[C@H](CCN5CCOCC5)CSc5ccccc5)c(S(=O)(=O)C(F)(F)F)c4)cc3)CC2)C1 [Navitoclax] (partner 0.5 µM)
Procedure, shortened: as §1

## NCI-H1299
Dovitinib; 0.02 µM
  relative viability: 0.966
Dovitinib; 0.06325 µM
  relative viability: 1.03
Dovitinib; 0.2 µM
  relative viability: 1.03
Dovitinib; 0.6325 µM
  relative viability: 0.98
Dovitinib; 2 µM
  relative viability: 1.03
Dovitinib + Foretinib; first compound 0.02 µM
  relative viability: 1.11
Dovitinib + Foretinib; first compound 0.06325 µM
  relative viability: 1.1
Dovitinib + Foretinib; first compound 0.2 µM
  relative viability: 1.11
Dovitinib + Foretinib; first compound 0.6325 µM
  relative viability: 1.11
Dovitinib + Foretinib; first compound 2 µM
  relative viability: 1.06
Dovitinib + Pictilisib; first compound 0.02 µM
  relative viability: 0.897
Dovitinib + Pictilisib; first compound 0.06325 µM
  relative viability: 0.8
Dovitinib + Pictilisib; first compound 0.2 µM
  relative viability: 0.69
Dovitinib + Pictilisib; first compound 0.6325 µM
  relative viability: 0.626
Dovitinib + Pictilisib; first compound 2 µM
  relative viability: 0.789
Dovitinib + Olaparib; first compound 0.02 µM
  relative viability: 0.927
Dovitinib + Olaparib; first compound 0.06325 µM
  relative viability: 1.01
Dovitinib + Olaparib; first compound 0.2 µM
  relative viability: 0.982
Dovitinib + Olaparib; first compound 0.6325 µM
  relative viability: 0.946
Dovitinib + Olaparib; first compound 2 µM
  relative viability: 1.02
Dovitinib + Lapatinib; first compound 0.02 µM
  relative viability: 0.948
Dovitinib + Lapatinib; first compound 0.06325 µM
  relative viability: 1
Dovitinib + Lapatinib; first compound 0.2 µM
  relative viability: 0.966
Dovitinib + Lapatinib; first compound 0.6325 µM
  relative viability: 0.892
Dovitinib + Lapatinib; first compound 2 µM
  relative viability: 0.966
Dovitinib + Linsitinib; first compound 0.02 µM
  relative viability: 0.913
Dovitinib + Linsitinib; first compound 0.06325 µM
  relative viability: 0.954
Dovitinib + Linsitinib; first compound 0.2 µM
  relative viability: 0.959
Dovitinib + Linsitinib; first compound 0.6325 µM
  relative viability: 0.951
Dovitinib + Linsitinib; first compound 2 µM
  relative viability: 0.976
Dovitinib + Crizotinib; first compound 0.02 µM
  relative viability: 0.941
Dovitinib + Crizotinib; first compound 0.06325 µM
  relative viability: 0.968
Dovitinib + Crizotinib; first compound 0.2 µM
  relative viability: 0.915
Dovitinib + Crizotinib; first compound 0.6325 µM
  relative viability: 0.942
Dovitinib + Crizotinib; first compound 2 µM
  relative viability: 1.01
Dovitinib + Bortezomib; first compound 0.02 µM
  relative viability: 0.977
Dovitinib + Bortezomib; first compound 0.06325 µM
  relative viability: 1.03
Dovitinib + Bortezomib; first compound 0.2 µM
  relative viability: 1.06
Dovitinib + Bortezomib; first compound 0.6325 µM
  relative viability: 1.05
Dovitinib + Bortezomib; first compound 2 µM
  relative viability: 1.03
Dovitinib + Alpelisib; first compound 0.02 µM
  relative viability: 0.984
Dovitinib + Alpelisib; first compound 0.06325 µM
  relative viability: 1.02
Dovitinib + Alpelisib; first compound 0.2 µM
  relative viability: 1.02
Dovitinib + Alpelisib; first compound 0.6325 µM
  relative viability: 1.04
Dovitinib + Alpelisib; first compound 2 µM
  relative viability: 1.09
Dovitinib + Navitoclax; first compound 0.02 µM
  relative viability: 1.01
Dovitinib + Navitoclax; first compound 0.06325 µM
  relative viability: 1.04
Dovitinib + Navitoclax; first compound 0.2 µM
  relative viability: 1.09
Dovitinib + Navitoclax; first compound 0.6325 µM
  relative viability: 1.05
Dovitinib + Navitoclax; first compound 2 µM
  relative viability: 1.08
